Columns and labels:
[1] = 500IU RRR-α-tocopherol administered to human subject; cited from earlier work
LDL = assay: Oxidative degeneration LDL assay using azo-compound (V-70); format: biochemical, human; details: for anti-oxidative activity on LDL (lag-time): added to LDL concentration-dependently, final concentration 60-1000 ng; for lag-time (time during which conjugate diene production was inhibited): final concentration 1 μg, LDL from eight male and female adults, V-70 200 μM, about 70 μg/mL LDL protein, control 88.1±29.4 minutes
Description: Blood collected from human subject was centrifuged at 3000 rpm for 10 minutes to isolate plasma. Next, KBr was added to 1.1 mL of the plasma which was then subjected to density gradient ultra-centrifugation (Single spin differential centrifugation) to collect LDL. After the determination of protein concentration, LDL was prepared by PBS.
In vitro assay of oxidatively denatured LDL was performed according to the method described by Kondo, et al. This method involves use of 2,2′-azobis([…]-2,4-dimethylvaleronitrile; V-70) as the oxidation starter. Final concentration of V-70 was 200 μM for about 70 μg/mL of LDL protein concentration, and production of the conjugate dienes of LDL was assayed at 234 nm for 300 minutes. The time during which conjugate diene production was inhibited was indicated as lag-time. The efficacy of each antioxidants was evaluated by adding the compound and V-70 at the same time and determining the lag-time caused by the compound.

Row | SMILES | plasma α-CEHC concentration [1] [pmol/mL] | anti-oxidative activity on LDL (lag-time) (LDL) | lag-time (time during which conjugate diene production was inhibited) (LDL) [min] | extension rate of lag-time (control = 1), FIG. 1 (LDL; final concentration 60 ng, close to 200 pmol/mL (lower concentration)) | anti-oxidative effects on LDL, comparison between compounds (LDL; final concentration 1 μg (higher concentration))
1 | Cc1c(C)c2c(c(C)c1O)CC[C@@](C)(CCC[C@H](C)CCC[C@H](C)CCCC(C)C)O2 [RRR-α-tocopherol] | 200 |  |  |  | 
2 | Cc1c(C)c2c(c(C)c1O)CCC(C)(CCC(=O)O)O2 (stereo not drawn) [α-CEHC, 2,5,7,8-Tetramethyl-2-(β-carboxyethyl)-6-hydroxychromane] |  | prolonged lag-times concentration-dependently | 190.8 ± 65.1 |  | 
3 | Cc1c(O)cc2c(c1C)OC(C)(CCC(=O)O)CC2 (stereo not drawn) [γ-CEHC, 2,7,8-trimethyl-2-(β-carboxyethyl)-6-hydroxychromane] |  | prolonged lag-times concentration-dependently | 263.1 ± 114.8 | greater increase in extension rate of lag-time than those of α-CEHC and Trolox groups | significantly stronger anti-oxidative effects on LDL than α-CEHC did

Reference: patent US20020040053A1, “Antioxidant containing vitamin E metabolite” (priority 2000, published 2002)
